Reference: patent US20260199369A1, “COMPOUNDS FOR THE TREATMENT OF NEUROMUSCULAR DISORDERS” (NMD PHARMA A/S, priority 2022, published 2026)
Read-outs that look alike come from different tables or passages of the source.

Tested on: isolated rat soleus muscles
Assay: Measurement of force in an in vitro model: recovery of contractile force of isolated rat soleus nerve-muscle preparation after tubocurarine
Conditions: 40 min, read-out: Point increase (%): percentage increase of initial force that was restored
Description: The current disclosure relates to compounds that inhibit CIC-1 ion channels and increase muscle excitability and thereby improve muscle function in clinical conditions where muscle activation is failing. Such conditions result in loss of contractile function of skeletal muscle, weakness and excessive fatigue. In this series of experiments the compounds were tested for their ability to restore contractile function of isolated rat muscle when the neuromuscular transmission had been compromised akin to neuromuscular disorders.
Experimentally, soleus muscles from 4-5 wk old rats were isolated with the motor nerve remaining attached. The nerve-muscle preparations were mounted in experimental setups that enabled electrical stimulation of the motor nerve. Stimulation of the motor nerve led to activation of the muscle fibres and ensuing force production that was recorded. The nerve-muscle preparations were also in these experiments incubated in the standard Krebs Ringer (see example 15) and the solution was heated to 30° C. and continuously equilibrated with a mixture of 95% O2 and 5% CO2, pH ~7.4.
After mounting the nerve-muscle preparation in the experimental setup, the contractile function of the muscle was initially assessed under the control conditions. Sub-maximal concentration of tubocurarine (115 nM), an acetylcholine receptor antagonist, was then added to the experimental bath to impose partial inhibition of the ability of the motor nerve to activate the muscle fibres. The experimental condition mimics the failing neuromuscular transmission in a range of neuromuscular disorders. After addition of tubocurarine the contractile force declined over the next 90 minutes to 10-50% of the control force. The test compound was then added to obtain the required compound concentration in the bath and the contractile force recovered was measured. To quantify the ability of the compound to restore force the percentage of the initial force that was restored was determined after 40 mins of compound exposure and the point increase is reported in Tables 3 to 7.

[1] = 25 μM of test compound, tubocurarine 115 nM, after 40 mins of compound exposure
[2] = 50 μM of test compound, tubocurarine 115 nM, after 40 mins of compound exposure
[3] = 100 μM of test compound, tubocurarine 115 nM, after 40 mins of compound exposure

Compound `COc1c(Cl)cc2c(c1C(=O)O)OCCN2CCc1cc(F)cc(F)c1` [Compound A-53, 6-Chloro-4-[2-(3,5-difluorophenyl)ethyl]-7-methoxy-3,4-dihydro-2H-1,4-benzoxazine-8-carboxylic acid] has an activation at 25 µM [1] of 30%.
With `CC(C)Oc1c(Cl)cc2c(c1C(=O)O)OCCN2C` [Compound A-24, 6-Chloro-4-methyl-7-(propan-2-yloxy)-3,4-dihydro-2H-1,4-benzoxazine-8-carboxylic acid] the activation at 50 µM was 34%.
With `O=C(O)c1c(F)c(Cl)cc2c1N(Cc1ccccc1)CCO2` [Compound A-45, 4-Benzyl-7-chloro-6-fluoro-3,4-dihydro-2H-1,4-benzoxazine-5-carboxylic acid] the activation at 10 µM was 43%.
Compound `COc1c(Cl)cc2c(c1C(=O)O)OCCN2Cc1ccccc1` [Compound A-52, 4-Benzyl-6-chloro-7-methoxy-3,4-dihydro-2H-1,4-benzoxazine-8-carboxylic acid] has an activation at 25 µM of 14%.
Compound `COc1c(Cl)cc2c(c1C(=O)O)OC(C)(C)CN2C` [Compound A-37, 6-Chloro-7-methoxy-2,2,4-trimethyl-3,4-dihydro-2H-1,4-benzoxazine-8-carboxylic acid] has an activation at 50 µM [2] of 51%.
`O=C(O)c1c(F)c(Cl)cc2c1OCCN2Cc1ccccc1` [Compound A-22, 4-Benzyl-6-chloro-7-fluoro-3,4-dihydro-2H-1,4-benzoxazine-8-carboxylic acid] was tested, and the activation at 100 µM [3] was 15%.
Work on `Cc1c(Cl)cc2c(c1C(=O)O)OCCN2C` [Compound A-48, 6-chloro-4,7-dimethyl-3,4-dihydro-2H-1,4-benzoxazine-8-carboxylic acid] yielded an activation at 25 µM of 23%.
With `O=C(O)c1c(Cl)c(Cl)cc2c1OCCN2Cc1ccccc1` [Compound A-41, 4-Benzyl-6,7-dichloro-3,4-dihydro-2H-1,4-benzoxazine-8-carboxylic acid] the activation at 100 µM was 28%.
`COc1c(Cl)cc2c(c1C(=O)O)OCCCN2C` [Compound A-12, 7-Chloro-8-methoxy-5-methyl-2,3,4,5-tetrahydro-1,5-benzoxazepine-9-carboxylic acid] showed an activation at 50 µM of 54%.
In the case of `CSc1c(Cl)cc2c(c1C(=O)O)OCCN2C` [Compound A-26, 6-Chloro-4-methyl-7-(methylsulfanyl)-3,4-dihydro-2H-1,4-benzoxazine-8-carboxylic acid], the activation at 25 µM is reported as 28%.
`COc1c(Cl)cc2c(c1C(=O)O)N(C)CCO2` [Compound A-10, 7-Chloro-6-methoxy-4-methyl-3,4-dihydro-2H-1,4-benzoxazine-5-carboxylic acid] gave an activation at 10 µM of 36%.
`COc1c(Cl)cc2c(c1C(=O)O)OCCN2Cc1nccs1` [Compound A-43, 6-Chloro-7-methoxy-4-[(1,3-thiazol-2-yl)methyl]-3,4-dihydro-2H-1,4-benzoxazine-8-carboxylic acid] gave an activation at 100 µM [3] of 14%.
`COc1c(Cl)cc2c(c1C(=O)O)OCCN2C(C)C` [Compound A-32, 6-Chloro-7-methoxy-4-(propan-2-yl)-3,4-dihydro-2H-1,4-benzoxazine-8-carboxylic acid] showed an activation at 50 µM [2] of 39%.
`O=C(O)c1c(F)c(Cl)cc2c1NCCO2` [Compound A-11, 7-Chloro-6-fluoro-3,4-dihydro-2H-1,4-benzoxazine-5-carboxylic acid] gave an activation at 50 µM [2] of 23%.
`COc1c(C)cc2c(c1C(=O)O)OCCN2C` [Compound A-31, 7-Methoxy-4,6-dimethyl-3,4-dihydro-2H-1,4-benzoxazine-8-carboxylic acid] gave an activation at 50 µM of 32%.
For `O=C(O)c1c(F)c(Cl)cc2c1OCCN2CC1CCC1` [Compound A-46, 6-Chloro-4-(cyclobutylmethyl)-7-fluoro-3,4-dihydro-2H-1,4-benzoxazine-8-carboxylic acid], the activation at 25 µM [1] was 8%.
`COc1c(Cl)cc2c(c1C(=O)O)OCCN2CCCc1ccco1` [Compound A-40, 6-Chloro-4-[3-(furan-2-yl)propyl]-7-methoxy-3,4-dihydro-2H-1,4-benzoxazine-8-carboxylic acid] gave an activation at 25 µM [1] of 14%.
